This is an account of results in patent US20260263410A1, “USE OF CALCIUM SENSING RECEPTOR ANTAGONISTS FOR TREATING OCULAR DISORDERS” (THE REGENTS OF THE UNIVERSITY OF CALIFORNIA, priority 2023, published 2026).

Molecules are shown by their SMILES. Values joined by “and” are separate entries in the source; they are usually repeats but may differ in a detail not shown here. Identical values can stand only once. Bounds are passed on as bounds.

Assay [1] is described as follows: Tear fluid volume by endodontic absorbent paper point tear test (EAPPTT). It counts as in vivo, BALB/c mice. The method, then: Endodontic absorbent paper point tear tests (EAPPTT) […] PBS with 30 μM NPS-2143 (or 0.2% DMSO control) in both eyes. […] The wetted length was measured using a millimeter-scale ruler viewed under a magnifying glass. All mice were kept at ambient conditions (approximately 50% humidity and 21° C.) and provided unrestricted access to food and water.

A further assay deals with CFTR. Kind of assay: OSPD, forskolin / CFTRinh-172-induced change (CFTR-mediated Cl− secretion). It counts as in vivo, mice. The text has this:
Using pharmacological activators and inhibitors, OSPD allows studying activities of various ion channels/transporters in the ocular surface.^12 In these studies, baseline OSPD is established using a high Cl^− solution that mimics the tear fihn. OSPD changes induced by amiloride (ENaC inhibitor) indicates Na^+ transport via ENaC. Similarly, OSPD changes induced by forskolin (cAMP agonist) and CFTRinh-172 (CFTR inhibitor) indicates Cl^− secretion via cAMP-activated Cl^− channels and particularly CFTR. Lastly, OSPD changes induced by Ca^2+ agonist ATP indicates Cl^− secretion mediated by CaCCs.
Sequential perfusion of the ocular surface with solutions containing amiloride (ENaC inhibitor), forskolin (cAMP agonist), CFTRinh-172 (CFTR inhibitor), and ATP (Ca^2+ agonist) thus allows determining activities of ENaC, CFTR, and CaCC ion channels, respectively (FIG. 4A).
Using CaSR antagonist NPS-2143 in the OSPD experiments confirmed the hypothesis. Perfusion of ocular surface with 30 μM NPS-2143 led to large hyperpolarization (−13 mV), which was 70% of subsequently applied maximal forskolin-induced hyperpolarization after which cAMP agonist forskolin had minimal further secretory effect (FIGS. 6A and 6B). […]
Ocular surface potential difference (OSPD) and tear fluid volume measurements were performed in mice with topically applied cinacalcet (CaSR activator) and NPS-2143 (CaSR inhibitor). […] As described previously,^12, 14, 15 open-circuit transepithelial potential differences were measured in response to serial perfusions of different isoosmolar (310 mOsm/kg H2O) solutions over the ocular surface at 5-10 ml/min. […] Each solution was perfused onto the ocular surface using a gravity perfusion system (ALA Scientific: Farmingdale, NY, USA) for 1-3 minutes until a stable OSPD reading was obtained.

For the molecule `CC(C)(Cc1ccc2ccccc2c1)NC[C@@H](O)COc1cccc(Cl)c1C#N` [NPS-2143, 2-chloro-6-[(2R)-3-([1,1-dimethyl-2-(2-naphthalenyl)ethyl]amino)-2-hydroxypropoxy]benzonitrile], the “increase in tear fluid volume” value in assay [1] (single dose topical 0.001% or 30 μM, for at least eight hours) is over 60%; in assay [1] (topical 0.001% or 30 μM, single 10 μL dose, as early as 15 minutes after treatment), 60% and ~ 60%. Moreover, the “reversal of effect by CFTR inhibitor CFTRinh-172” value with CFTR (10 μM CFTRinh-172 after NPS-2143 and forskolin) was “partially reversed”. The “Cl− secretory effect in mouse ocular surface” value in the assay with CFTR (applied topically) is listed as “large Cl^− secretory current”.

For `C[C@@H](NCCCc1cccc(C(F)(F)F)c1)c1cccc2ccccc12` [cinacalcet], the “inhibition of CFTR activity (lower CFTRinh-172 response)” value in the assay on CFTR (30 μM cinacalcet, 10 μM CFTRinh-172, concentration-dependent) is recorded as “up to 90%”.
